In US20110160146A1, “Conjungation of Small Molecules to Octaarginine Transporters for Overcoming Multi-Drug Resistance” (National Institute of Health (NIH), priority 2008, published 2011):
Non-standard residues stand in square brackets, D forms with d. Residues, ends and D or L forms follow the SMILES beside them. *: point of attachment. Paclitaxel(2'-OCO(CH2)3S) = CC(=O)O[C@H]1C(=O)[C@@]2(C)[C@H]([C@H](OC(=O)c3ccccc3)[C@]3(O)C[C@H](OC(=O)[C@H](OC(=O)CCCS*)[C@@H](NC(=O)c4ccccc4)c4ccccc4)C(C)=C1C3(C)C)[C@]1(OC(C)=O)CO[C@@H]1C[C@@H]2O; X2 = CC(=O)O[C@H]1C(=O)[C@@]2(C)[C@H]([C@H](OC(=O)c3ccccc3)[C@]3(O)C[C@H](OC(=O)[C@H](OC(=O)OCCS*)[C@@H](NC(=O)c4ccccc4)c4ccccc4)C(C)=C1C3(C)C)[C@]1(OC(C)=O)CO[C@@H]1C[C@@H]2O; X1 = CC(=O)O[C@H]1C(=O)[C@]2(C)[C@@H](OC(=O)CCCS*)C[C@H]3OC[C@@]3(OC(C)=O)[C@H]2[C@H](OC(=O)c2ccccc2)[C@]2(O)C[C@H](OC(=O)[C@H](O)[C@@H](NC(=O)c3ccccc3)c3ccccc3)C(C)=C1C2(C)C; X3 = O=C(OCCCS*)Oc1ccc(-c2cn3c(=O)c(Cc4ccccc4)nc-3c(Cc3ccccc3)[nH]2)cc1

Key:
OVCA 429 = experiment: cells; settings: read-out: IC50 concentration; OVCA 429; 20 min incubation, washed, 72 hr drug-free media
Method: (§1) After 72 hours, the cytotoxicity of the relevant compound was determined by an MTT based assay.
(§2) Cell Lines; SKOV-3 cells were obtained from ATCC; UCI-101 and UCI-107 cell lines were obtained from Drs. P. DiSaia and A. Manetta, University of California; MCF-7 and MCF-7-Pgp were obtained from Dr. D. Piwnica-Worms, Washington University; OVCA429, OVCA433 and the taxane resistant derivatives of these cells (OVCA429T, OVCA429TxT, OVCA433T and OVCA433TxT) were obtained from Dr. B. Sikic, Stanford University. All cells were grown in DMEM with 10% FBS.
(§3) Cell Cytotoxicity Assay. The cytotoxicity of relevant compounds was determined by IC50 assay. Cells were seeded overnight into 96-well plates, and then incubated with a serial dilution of the indicated compound for 20 min, before washing twice with fresh media, and incubation at 37° C. for 72 hr in drug-free media. The IC50 values were determined as the concentration of compound required to inhibit the viability of the cell layer by 50% relative to untreated, and cell-free control wells (100 and 0% viability respectively) determined from semi-logarithmic dose response curves. […] Bioluminescence was determined using an IVIS 50 system (Caliper Life Sciences, Alameda, Calif.). Each compound and dilution was tested in triplicate per experiment, with each experiment reproduced three times.

UCI-107 luc = experiment: cells; settings: read-out: IC50 concentration; UCI-107 luc; 20 min incubation, washed, 72 hr drug-free media; MTT assay or luciferase activity
Method: as §1, §2, §3

SKOV-3 = experiment: cells; settings: read-out: IC50 concentration; SKOV-3; 20 min incubation, washed, 72 hr drug-free media
Method: as §1, §2, §3

MCF-7 = experiment: cells; settings: read-out: IC50 concentration; MCF-7; 20 min incubation, washed, 72 hr drug-free media
Method: as §1, §2, §3

UCI-101 luc = experiment: cells; settings: read-out: IC50 concentration; UCI-101 luc; 20 min incubation, washed, 72 hr drug-free media; MTT assay or luciferase activity
Method: as §1, §2, §3

OVCA 433 = experiment: cells; settings: read-out: IC50 concentration; OVCA 433; 20 min incubation, washed, 72 hr drug-free media
Method: as §1, §2, §3

OVCA 429TxT = experiment: cells; settings: read-out: IC50 concentration; OVCA 429TxT (taxotere selected); 20 min incubation, washed, 72 hr drug-free media
Method: as §1
(§4) Within the panel of human cancer cells, there were three sets of related sensitive and resistant cell lines, the latter based wholly or in part on Pgp-mediated efflux. These resistant lines were either created through stable transfection of MCF-7 cells with Pgp (MCF-7-Pgp), or by selection through exposure of OVCA429 and OVCA433 cells to taxol (OVCA429T and OVCA433T)^19 or taxotere (OVCA429TxT and OVCA433TxT), creating a complex MDR phenotype including Pgp upregulation.
as §2, §3

OVCA 433TxT = experiment: cells; settings: read-out: IC50 concentration; OVCA 433TxT (taxotere selected); 20 min incubation, washed, 72 hr drug-free media
Method: as §1, §4, §2, §3

OVCA 429T = experiment: cells; settings: read-out: IC50 concentration; OVCA 429T (taxol resistant); 20 min incubation, washed, 72 hr drug-free media
Method: as §1, §4, §2, §3

OVCA 433T = experiment: cells; settings: read-out: IC50 concentration; OVCA 433T (taxol resistant); 20 min incubation, washed, 72 hr drug-free media
Method: as §1, §4, §2, §3

[1] = Hydrolytic stability (HBS, pH 7.4, 37° C.); assay type: physicochemical
Method: A conjugate in which a drug to be delivered and a transporter are linked by a specifically cleavable or specifically releasable linker will have a half-life. The term “half-life” in this context refers to the amount of time required for one half of the amount of conjugate to become dissociated to release the free drug. The “accelerated” (37° C.) hydrolytic half-lives of the conjugates ranged from 19 to 97 hours, extending well beyond the incubation times (≦20 minutes) used for cell assays. Stabilities of the conjugates as solids at room temperature extend for months. […] The half-life of a conjugate can be “tuned” or modified, according to the invention, as described below.
The “accelerated” (37° C.) hydrolytic half-lives of the tetra- and octaarginine conjugates ranged from 19 to 97 hours, extending well beyond the incubation times (s 20 minutes) used for cell assays. Stability as a solid at room temperature extends for months. […] The activities of various conjugate-linker combinations were evaluated using a panel of human cancer cells, leading to the identification of ester-linked conjugates 2a and 3a as preferred candidates (Table 2).

MCF-7-pgp = experiment: Cell cytotoxicity assay (IC50), MCF-7-pgp; settings: read-out: IC50 concentration; MCF-7-pgp (Pgp transfected); 20 min incubation, washed, 72 hr drug-free media
Method: as §1, §4, §2, §3

OVCA429 cells = experiment: Cell cycle assay, OVCA429; assay type: cell-based, human; parameters: dose or concentration left out as unconfirmed; settings: analysis after 24 hr, 7-AAD flow cytometry
Method: FIG. 1. Mechanisms of action of octaarginine taxol conjugates. (a) Tubulin polymerization assay.
The percentage of cells in G2/M was recorded. Data from 3 separate experiments were combined.
Statistical significance was determined as p<0.05.

[2] = Method: FIG. 2. Effect of octaarginine (r8) conjugation on biodistribution of drug. […] (a) Representative image of treated mice at 40 min post injection. (b) Total signal per mouse at times post injection (average of two experiments).
Biolumninescence signal was determined at regular time points immediately after injection using an IVIS 200 system (Caliper Life Sciences, Alameda, Calif.).

CC(=O)N[C@H](CSSCCCC(=O)O[C@@H](C(=O)O[C@H]1C[C@@]2(O)[C@@H](OC(=O)c3ccccc3)[C@@H]3[C@]4(OC(C)=O)CO[C@@H]4C[C@H](O)[C@@]3(C)C(=O)[C@H](OC(C)=O)C(=C1C)C2(C)C)[C@@H](NC(=O)c1ccccc1)c1ccccc1)C(=O)N[C@H](CCCNC(=N)N)C(=O)N[C@H](CCCNC(=N)N)C(=O)N[C@H](CCCNC(=N)N)C(=O)N[C@H](CCCNC(=N)N)C(=O)N[C@H](CCCNC(=N)N)C(=O)N[C@H](CCCNC(=N)N)C(=O)N[C@H](CCCNC(=N)N)C(=O)N[C@H](CCCNC(=N)N)C(N)=O [2a, Taxol C2′ ester octaarginine conjugate] (Ac-[dC](Paclitaxel(2'-OCO(CH2)3S))[dR][dR][dR][dR][dR][dR][dR][dR]-NH2)
IC50 (OVCA 429): 42 nM | IC50 (UCI-107 luc): 92 nM | IC50 (SKOV-3): 11 nM | IC50 (MCF-7): 40 nM | IC50 (UCI-101 luc): 58 nM | IC50 (OVCA 433): 21 nM | IC50 (OVCA 429TxT): 101 nM | IC50 (OVCA 433TxT): 2980 nM | IC50 (OVCA 429T): 420 nM | IC50 (OVCA 433T): 131 nM | half-life [1]: 23 h | IC50 (MCF-7-pgp): 151 nM

CC(=O)N[C@H](CSSCCCC(=O)O[C@@H](C(=O)O[C@H]1C[C@@]2(O)[C@@H](OC(=O)c3ccccc3)[C@@H]3[C@]4(OC(C)=O)CO[C@@H]4C[C@H](O)[C@@]3(C)C(=O)[C@H](OC(C)=O)C(=C1C)C2(C)C)[C@@H](NC(=O)c1ccccc1)c1ccccc1)C(=O)N[C@H](CCCNC(=N)N)C(=O)N[C@H](CCCNC(=N)N)C(=O)N[C@H](CCCNC(=N)N)C(=O)N[C@H](CCCNC(=N)N)C(N)=O [2b, Taxol C2′ ester tetraarginine conjugate]
percentage of cells in the G2/M phase relative to taxol (OVCA429 cells): significantly greater percentage | half-life [1]: 19 h

CC(=O)N[C@H](CSSCCCC(=O)O[C@H]1C[C@H]2OC[C@@]2(OC(C)=O)[C@H]2[C@H](OC(=O)c3ccccc3)[C@]3(O)C[C@H](OC(=O)[C@H](O)[C@@H](NC(=O)c4ccccc4)c4ccccc4)C(C)=C([C@@H](OC(C)=O)C(=O)[C@]12C)C3(C)C)C(=O)N[C@H](CCCNC(=N)N)C(=O)N[C@H](CCCNC(=N)N)C(=O)N[C@H](CCCNC(=N)N)C(=O)N[C@H](CCCNC(=N)N)C(=O)N[C@H](CCCNC(=N)N)C(=O)N[C@H](CCCNC(=N)N)C(=O)N[C@H](CCCNC(=N)N)C(=O)N[C@H](CCCNC(=N)N)C(N)=O [3a, Taxol C7 ester octaarginine conjugate] (Ac-[dC](X1)[dR][dR][dR][dR][dR][dR][dR][dR]-NH2)
IC50 (OVCA 429): 125 nM | IC50 (UCI-107 luc): 233 nM | IC50 (SKOV-3): 24 nM | IC50 (MCF-7): 146 nM | IC50 (UCI-101 luc): 170 nM | IC50 (OVCA 433): 62 nM | IC50 (OVCA 429TxT): 93 nM | IC50 (OVCA 433TxT): 1280 nM | IC50 (OVCA 429T): 225 nM | IC50 (OVCA 433T): 95 nM | half-life [1]: 97 h | IC50 (MCF-7-pgp): 83 nM

CC(=O)N[C@H](CSSCCCC(=O)O[C@H]1C[C@H]2OC[C@@]2(OC(C)=O)[C@H]2[C@H](OC(=O)c3ccccc3)[C@]3(O)C[C@H](OC(=O)[C@H](O)[C@@H](NC(=O)c4ccccc4)c4ccccc4)C(C)=C([C@@H](OC(C)=O)C(=O)[C@]12C)C3(C)C)C(=O)N[C@H](CCCNC(=N)N)C(=O)N[C@H](CCCNC(=N)N)C(=O)N[C@H](CCCNC(=N)N)C(=O)N[C@H](CCCNC(=N)N)C(N)=O [3b, Taxol C7 ester tetraarginine conjugate]
half-life [1]: 68 h

CC(=O)N[C@H](CSSCCOC(=O)O[C@@H](C(=O)O[C@H]1C[C@@]2(O)[C@@H](OC(=O)c3ccccc3)[C@@H]3[C@]4(OC(C)=O)CO[C@@H]4C[C@H](O)[C@@]3(C)C(=O)[C@H](OC(C)=O)C(=C1C)C2(C)C)[C@@H](NC(=O)c1ccccc1)c1ccccc1)C(=O)N[C@H](CCCNC(=N)N)C(=O)N[C@H](CCCNC(=N)N)C(=O)N[C@H](CCCNC(=N)N)C(=O)N[C@H](CCCNC(=N)N)C(=O)N[C@H](CCCNC(=N)N)C(=O)N[C@H](CCCNC(=N)N)C(=O)N[C@H](CCCNC(=N)N)C(=O)N[C@H](CCCNC(=N)N)C(N)=O [4a, Taxol C2′ octaarginine conjugate] (Ac-[dC](X2)[dR][dR][dR][dR][dR][dR][dR][dR]-NH2)
half-life [1]: 32 h

CC(=O)N[C@H](CSSCCOC(=O)O[C@@H](C(=O)O[C@H]1C[C@@]2(O)[C@@H](OC(=O)c3ccccc3)[C@@H]3[C@]4(OC(C)=O)CO[C@@H]4C[C@H](O)[C@@]3(C)C(=O)[C@H](OC(C)=O)C(=C1C)C2(C)C)[C@@H](NC(=O)c1ccccc1)c1ccccc1)C(=O)N[C@H](CCCNC(=N)N)C(=O)N[C@H](CCCNC(=N)N)C(=O)N[C@H](CCCNC(=N)N)C(=O)N[C@H](CCCNC(=N)N)C(N)=O [4b, Taxol C2′ tetraarginine conjugate]
half-life [1]: 26 h

CC(=O)N[C@H](CSSCCCOC(=O)Oc1ccc(-c2cn3c(=O)c(Cc4ccccc4)nc-3c(Cc3ccccc3)[nH]2)cc1)C(=O)N[C@H](CCCNC(=N)N)C(=O)N[C@H](CCCNC(=N)N)C(=O)N[C@H](CCCNC(=N)N)C(=O)N[C@H](CCCNC(=N)N)C(=O)N[C@H](CCCNC(=N)N)C(=O)N[C@H](CCCNC(=N)N)C(=O)N[C@H](CCCNC(=N)N)C(=O)N[C@H](CCCNC(=N)N)C(N)=O [compound 6, Coelenterazine octaarginine conjugate] (Ac-[dC](X3)[dR][dR][dR][dR][dR][dR][dR][dR]-NH2)
half-life [1]: 0.117 h

CC(=O)N[C@H](CSSCCCCOC(=O)Oc1ccc2nc(C3=N[C@@H](C(=O)O)CS3)sc2c1)C(=O)N[C@H](CCCNC(=N)N)C(=O)N[C@H](CCCNC(=N)N)C(=O)N[C@H](CCCNC(=N)N)C(=O)N[C@H](CCCNC(=N)N)C(=O)N[C@H](CCCNC(=N)N)C(=O)N[C@H](CCCNC(=N)N)C(=O)N[C@H](CCCNC(=N)N)C(=O)N[C@H](CCCNC(=N)N)C(N)=O [compound 7, Luciferin octaarginine conjugate]
calculated area under the curve (total light production) ([2]; intraperitoneal injection, luciferase transgenic mice): similar | biodistribution after intraperitoneal injection ([2]; transgenic mice ubiquitously expressing Firefly luciferase, equimolar to 5 mg/kg): did not distribute throughout the body, remaining instead near the site of administration | half-life [1]: 30 h
